Assay results from patent US20050203290A1, “Crystalline form of sucralose, and method for producing it” (priority 2003, published 2005).

Columns and labels:
[1] = particle size analysis by light scattering (Coulter LS100Q); type: physicochemical; conditions: Isopar G isoparaffin fluid as dispersing medium
Procedure: Particle size analysis of the product is performed using a Coulter LS100Q Particle Size Analyzer, available from Coulter Corporation of Miami, Florida. The analyzer operates by light scattering, using Isopar™ G isoparaffin fluid, available from ExxonMobil Chemical of Houston, Tex., as the dispersing medium. The sucralose product crystals have a particle size distribution such that 90 wt. % of the sample has a particle size less than 62 μm, while 10 wt. % has a particle size less than from about 4 μm, with a mean of 30 μm.

[2] = accelerated aging test (shelf life of crystalline sucralose); type: physicochemical
Procedure: Shelf life of crystalline sucralose is commonly estimated by performing an accelerated aging test. In this test the crystals are maintained in a controlled atmosphere at 50° C. (122° F.), and sampled periodically. Each sample is dissolved in water and the pH of a 10% solution is tracked to determine the elapsed time at which the pH drops by one unit, indicating a slight sucralose decomposition. Crystals made by traditional methods are considered stable when such decomposition is not indicated until at least 3 days in this test. This is considered equivalent to a shelf life under ambient conditions of about 8 years.

Row | Compound | mean particle size [1] | particle size below which 10 wt. % of the sample lies [1] | particle size below which 90 wt. % of the sample lies [1] | stability in accelerated aging test: elapsed time until pH of a 10% solution drops by one unit ([2]; crystals kept at 50° C. (122° F.) in controlled atmosphere, Example product dried at about 60° F., moisture about 0.5 wt. %) | shelf life under typical ambient storage conditions corresponding to the accelerated aging result ([2]; extrapolated from accelerated aging test at 50° C.) | elapsed time until pH drop under accelerated conditions ([2]; 50° C., dried at the preferred temperature, moisture levels typical of old crystals)
1 | OC[C@H]1O[C@H](O[C@]2(CCl)O[C@H](CCl)[C@@H](O)[C@@H]2O)[C@H](O)[C@@H](O)[C@H]1Cl [sucralose product crystals, 4,1′,6′-trichloro-4,1′,6′-trideoxygalactosucrose] | 30 μm | < 4 μm | less than 62 μm | at least 3 days | about 8 years | –
2 | OC[C@H]1O[C@H](O[C@]2(CCl)O[C@H](CCl)[C@@H](O)[C@@H]2O)[C@H](O)[C@@H](O)[C@H]1Cl [old crystals, 4,1′,6′-trichloro-4,1′,6′-trideoxygalactosucrose, reference compound] | – | – | – | – | – | 3 days
